Assay results taken from patent US11000033B2, “Ketone or oxime compound, and herbicide” (NISSAN CHEMICAL CORPORATION, priority 2014, dated 2021).

Experiments:
Type in all cases: in vivo
Monochoria vaginalis = experiment: Test Example 2: herbicidal activity, application during weed generation in submerged conditions (symbol C); conditions: Table 23; application herbicide amount 320 g/ha; grade 0-5 by criteria of Test Example 1
How it was run: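 Compound was applied as a water-diluted emulsion into the standing water of flooded pots (4 cm) once co-sown weeds reached one to two leaves. Greenhouse temperature was 25° C. to 30° C., soil was alluvial, and each species was rated visually after 3 weeks.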

[1] = test system: Echinochloa crus-galli var. crus-galli; experiment: Test Example 3: herbicidal effect by foliage application, Wagner pot (symbol H); conditions: application herbicide amount 320 g/ha
How it was run: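 In a shallow-flooded alluvial soil system held at 25–30 °C, plants including rice grew for 14 days and were then sprayed over the foliage with emulsion diluted to a fixed herbicide amount. Visual rating followed at 3 weeks.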

Avena fatua = experiment: Test Example 4: herbicidal effect by soil treatment (symbol I); conditions: application herbicide amount 320 g/ha
How it was run: (§1)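 Seeds were sown in sterilized diluvial soil, covered with about 1.5 cm of soil, and the soil surface was sprayed with a water-diluted emulsion of the compound at a predetermined rate. Plants grew in a greenhouse at 25° C. to 30° C.; effects were scored visually 3 weeks after application.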

Apera spica-venti = experiment: Test Example 4: herbicidal effect by soil treatment (symbol L); conditions: application herbicide amount 320 g/ha
How it was run: as §1

Stellaria media = experiment: Test Example 4: herbicidal effect by soil treatment (symbol P); conditions: application herbicide amount 320 g/ha
How it was run: as §1

Galium spurium [2] = experiment: Test Example 4: herbicidal effect by soil treatment (symbol Q); conditions: application herbicide amount 320 g/ha
How it was run: as §1

Veronica persica [3] = experiment: Test Example 4: herbicidal effect by soil treatment (symbol R); conditions: application herbicide amount 320 g/ha
How it was run: as §1

wheat = experiment: Test Example 4: effect on crop by soil treatment (symbol e); conditions: application herbicide amount 320 g/ha
How it was run: (§2)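 Plants grew in a 25° C. to 30° C. greenhouse after spot-sowing of seeds, including beet, rapeseed, wheat and rice, into sterilized diluvial soil under roughly 1.5 cm of cover soil.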

rapeseed = experiment: Test Example 4: effect on crop by soil treatment (symbol g); conditions: application herbicide amount 320 g/ha
How it was run: as §2

Digitaria ciliaris = experiment: Test Example 5: herbicidal effect by foliage application, plastic box (symbol F); conditions: 320 g/ha, 3 weeks after application
How it was run: (§3)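 Greenhouse foliar test: seedlings at 14 days, grown 25° C. to 30° C. in sterilized diluvial soil; compound applied as an aqueous dilution of an emulsion; response read 3 weeks after spraying.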

Veronica persica [4] = experiment: Test Example 5: herbicidal effect by foliage application, plastic box (symbol R); conditions: 320 g/ha, 3 weeks after application
How it was run: as §3

rice plant = experiment: Test Example 5: effect on crop by foliage application, plastic box (symbol b); conditions: 320 g/ha, 3 weeks after application
How it was run: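 Foliage-application test plants come from spot sowing in sterilized diluvial soil under a soil layer of about 1.5 cm, grown at 25° C. to 30° C. in a greenhouse.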

Galium spurium [5] = experiment: Test Example 5: herbicidal effect by foliage application, plastic box (symbol Q); conditions: 320 g/ha, 3 weeks after application
How it was run: as §3

SMILES | Herbicidal effect grade, C: Monochoria vaginalis (Monochoria vaginalis) | herbicidal effect on H (Echinochloa crus-galli var. crus-galli), grade 0-5 [1] | I: Avena fatua, herbicidal effect grade (Avena fatua) | L: Apera spica-venti, herbicidal effect grade (Apera spica-venti) | P: Stellaria media, herbicidal effect grade (Stellaria media) | Q: Galium spurium, herbicidal effect grade (Galium spurium [2]) | R: Veronica persica, herbicidal effect grade (Veronica persica [3]) | e: wheat, effect on crop grade (wheat) | g: rapeseed, effect on crop grade (rapeseed) | F: Digitaria ciliaris, herbicidal effect grade (Digitaria ciliaris) | R: Veronica persica, herbicidal effect grade (Veronica persica [4]) | b: directly sowed rice plant, effect on crop grade (rice plant) | Q: Galium spurium, herbicidal effect grade (Galium spurium [5])
CON=CC1CC(O)=C(c2c(C)cc(C)cc2C)C1=O (mixture of isomers) [3-001] | 0 (Herbicidal ratio of 5% or lower (almost no effect)) | 3 (Herbicidal ratio of 40% or higher and lower than 70%) | 0 (Herbicidal ratio of 5% or lower (almost no effect)) | 5 (Herbicidal ratio of 90% or more (almost completely withered)) | 0 (Herbicidal ratio of 5% or lower (almost no effect)) | 0 (Herbicidal ratio of 5% or lower (almost no effect)) | 0 (Herbicidal ratio of 5% or lower (almost no effect)) | 0 (Herbicidal ratio of 5% or lower (almost no effect)) | 0 (Herbicidal ratio of 5% or lower (almost no effect)) | 4 (Herbicidal ratio of 70% or higher and lower than 90%) | 0 (Herbicidal ratio of 5% or lower (almost no effect)) | 4 (Herbicidal ratio of 70% or higher and lower than 90%) | 
CON=C(C)CC1CC(O)=C(c2c(C)cc(-c3ccc(C(F)(F)F)cc3)cc2C)C1=O (mixture of isomers) [6-016] | 0 (Herbicidal ratio of 5% or lower (almost no effect)) | 5 (Herbicidal ratio of 90% or more (almost completely withered)) | 0 (Herbicidal ratio of 5% or lower (almost no effect)) | 5 (Herbicidal ratio of 90% or more (almost completely withered)) | 0 (Herbicidal ratio of 5% or lower (almost no effect)) | 0 (Herbicidal ratio of 5% or lower (almost no effect)) | 0 (Herbicidal ratio of 5% or lower (almost no effect)) | 0 (Herbicidal ratio of 5% or lower (almost no effect)) | 0 (Herbicidal ratio of 5% or lower (almost no effect)) | 5 (Herbicidal ratio of 90% or more (almost completely withered)) | 3 (Herbicidal ratio of 40% or higher and lower than 70%) | 5 (Herbicidal ratio of 90% or more (almost completely withered)) | 
CON=C(C)CC1CC(O)=C(c2c(C)cc(-c3ccc(C)cc3)cc2C)C1=O (mixture of isomers) [6-018] | 3 (Herbicidal ratio of 40% or higher and lower than 70%) | 5 (Herbicidal ratio of 90% or more (almost completely withered)) | 0 (Herbicidal ratio of 5% or lower (almost no effect)) | 5 (Herbicidal ratio of 90% or more (almost completely withered)) | 0 (Herbicidal ratio of 5% or lower (almost no effect)) | 0 (Herbicidal ratio of 5% or lower (almost no effect)) | 0 (Herbicidal ratio of 5% or lower (almost no effect)) | 0 (Herbicidal ratio of 5% or lower (almost no effect)) | 0 (Herbicidal ratio of 5% or lower (almost no effect)) | 5 (Herbicidal ratio of 90% or more (almost completely withered)) | 4 (Herbicidal ratio of 70% or higher and lower than 90%) | 5 (Herbicidal ratio of 90% or more (almost completely withered)) | 
CCOC(=O)C(C(=O)C(C)C)C1CC(O)=C(c2c(C)cc(C)cc2C)C1=O (stereo not drawn) [2-009] | 0 (Herbicidal ratio of 5% or lower (almost no effect)) | 3 (Herbicidal ratio of 40% or higher and lower than 70%) | 0 (Herbicidal ratio of 5% or lower (almost no effect)) | 0 (Herbicidal ratio of 5% or lower (almost no effect)) | 0 (Herbicidal ratio of 5% or lower (almost no effect)) | 0 (Herbicidal ratio of 5% or lower (almost no effect)) |  | 0 (Herbicidal ratio of 5% or lower (almost no effect)) | 0 (Herbicidal ratio of 5% or lower (almost no effect)) | 0 (Herbicidal ratio of 5% or lower (almost no effect)) | 0 (Herbicidal ratio of 5% or lower (almost no effect)) | 4 (Herbicidal ratio of 70% or higher and lower than 90%) | 0 (Herbicidal ratio of 5% or lower (almost no effect))
CCC(C)C(=O)CC1CC(O)=C(c2c(C)cc(C)cc2C)C1=O (stereo not drawn) [2-024] | 0 (Herbicidal ratio of 5% or lower (almost no effect)) | 5 (Herbicidal ratio of 90% or more (almost completely withered)) | 0 (Herbicidal ratio of 5% or lower (almost no effect)) | 0 (Herbicidal ratio of 5% or lower (almost no effect)) | 0 (Herbicidal ratio of 5% or lower (almost no effect)) | 0 (Herbicidal ratio of 5% or lower (almost no effect)) | 0 (Herbicidal ratio of 5% or lower (almost no effect)) | 0 (Herbicidal ratio of 5% or lower (almost no effect)) | 0 (Herbicidal ratio of 5% or lower (almost no effect)) | 4 (Herbicidal ratio of 70% or higher and lower than 90%) | 2 (Herbicidal ratio of 20% or higher and lower than 40%) | 5 (Herbicidal ratio of 90% or more (almost completely withered)) | 
CCc1cc(Br)cc(C)c1C1=C(O)CC(CC(C)=NOC)C1=O (stereo not drawn) [6-001] | 0 (Herbicidal ratio of 5% or lower (almost no effect)) | 5 (Herbicidal ratio of 90% or more (almost completely withered)) | 5 (Herbicidal ratio of 90% or more (almost completely withered)) | 5 (Herbicidal ratio of 90% or more (almost completely withered)) | 0 (Herbicidal ratio of 5% or lower (almost no effect)) | 0 (Herbicidal ratio of 5% or lower (almost no effect)) |  | 5 (Herbicidal ratio of 90% or more (almost completely withered)) | 2 (Herbicidal ratio of 20% or higher and lower than 40%) | 5 (Herbicidal ratio of 90% or more (almost completely withered)) | 0 (Herbicidal ratio of 5% or lower (almost no effect)) | 5 (Herbicidal ratio of 90% or more (almost completely withered)) | 0 (Herbicidal ratio of 5% or lower (almost no effect))
CON=C(C)CC1CC(O)=C(c2c(C)cc(C)cc2OC)C1=O (stereo not drawn) [6-037, 3-hydroxy-2-(2-methoxy-4,6-dimethylphenyl)-5-{2-(methoxyimino)propyl}cyclopent-2-enone] | 4 (Herbicidal ratio of 70% or higher and lower than 90%) | 5 (Herbicidal ratio of 90% or more (almost completely withered)) | 5 (Herbicidal ratio of 90% or more (almost completely withered)) | 5 (Herbicidal ratio of 90% or more (almost completely withered)) | 0 (Herbicidal ratio of 5% or lower (almost no effect)) | 0 (Herbicidal ratio of 5% or lower (almost no effect)) | 1 (Herbicidal ratio of 5% or higher and lower than 20%) | 5 (Herbicidal ratio of 90% or more (almost completely withered)) | 3 (Herbicidal ratio of 40% or higher and lower than 70%) | 5 (Herbicidal ratio of 90% or more (almost completely withered)) | 3 (Herbicidal ratio of 40% or higher and lower than 70%) | 5 (Herbicidal ratio of 90% or more (almost completely withered)) | 
